In ChEMBL document CHEMBL1201862, “PubChem BioAssay data set” (2004):
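Tested at 5 concentrations; 48 h exposure; 96-well plates; endpoints linearly interpolated, else capped at highest concentration. GI50 is the concentration that inhibits growth by half.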 The source made the active and inactive calls. No stated cut-off is given here; in the data, active = GI50 up to about 1.1 µM and inactive = higher.

How the values were obtained:
Assay in all cases: inhibition of tumour cell growth, NCI panel, 48 h
SW-620 = tested on: SW-620
COLO 205 = tested on: COLO 205
SNB-19 = tested on: SNB-19
OVCAR-4 = tested on: OVCAR-4
UO-31 = tested on: UO-31
DU-145 = tested on: DU-145
RXF 393 = tested on: RXF 393
RPMI-8226 = tested on: RPMI-8226
SK-MEL-28 = tested on: SK-MEL-28
SF-295 = tested on: SF-295
SK-OV-3 = tested on: SK-OV-3
BT-549 = tested on: BT-549
Malme-3M = tested on: Malme-3M
U-251 = tested on: U-251
OVCAR-3 = tested on: OVCAR-3
HOP-62 = tested on: HOP-62
UACC-62 = tested on: UACC-62
EKVX = tested on: EKVX
Hs-578T = tested on: Hs-578T
NCI/ADR-RES = tested on: NCI/ADR-RES
HCT-15 = tested on: HCT-15
MDA-MB-231 = tested on: MDA-MB-231
SK-MEL-2 = tested on: SK-MEL-2
IGROV-1 = tested on: IGROV-1
NCI-H522 = tested on: NCI-H522
PC-3 = tested on: PC-3
CCRF-CEM = tested on: CCRF-CEM
OVCAR-8 = tested on: OVCAR-8
SF-268 = tested on: SF-268
HL-60 = tested on: HL-60
SN12C = tested on: SN12C
NCI-H460 = tested on: NCI-H460
HT-29 = tested on: HT-29
A498 = tested on: A498
ACHN = tested on: ACHN
HOP-92 = tested on: HOP-92
SR = tested on: SR
MOLT-4 = tested on: MOLT-4
NCI-H23 = tested on: NCI-H23
MCF7 = tested on: MCF7
M14 = tested on: M14
SF-539 = tested on: SF-539
SNB-75 = tested on: SNB-75
NCI-H226 = tested on: NCI-H226
UACC-257 = tested on: UACC-257
MDA-MB-435 = tested on: MDA-MB-435
K562 = tested on: K562
TK-10 = tested on: TK-10
KM12 = tested on: KM12
A549 = tested on: A549
OVCAR-5 = tested on: OVCAR-5
786-0 = tested on: 786-0
HCT-116 = tested on: HCT-116
SK-MEL-5 = tested on: SK-MEL-5
CAKI-1 = tested on: CAKI-1
LOX IMVI = tested on: LOX IMVI
T47D = tested on: T47D
HCC 2998 = tested on: HCC 2998

Measured: GI50

C1=N\CCN2CCN(CC/N=C\c3ccc(cc3)OCc3cccc(n3)COc3ccc/1cc3)CC2
> 50 µM: HCT-15
inactive: SW-620 > 50 µM | COLO 205 > 50 µM | SNB-19 > 50 µM | OVCAR-4 > 50 µM | UO-31 > 50 µM | DU-145 > 50 µM | RXF 393 11.6 µM | RPMI-8226 > 50 µM | SK-MEL-28 > 50 µM | SF-295 46.2 µM | SK-OV-3 > 50 µM | BT-549 > 50 µM | Malme-3M 26.9 µM | U-251 > 50 µM | OVCAR-3 28.8 µM | HOP-62 > 50 µM | UACC-62 > 50 µM | EKVX > 50 µM | Hs-578T 32.7 µM | NCI/ADR-RES > 50 µM | MDA-MB-231 > 50 µM | SK-MEL-2 > 50 µM | IGROV-1 > 50 µM | NCI-H522 > 50 µM | PC-3 > 50 µM | CCRF-CEM > 50 µM | OVCAR-8 > 50 µM | SF-268 > 50 µM | HL-60 > 50 µM | SN12C > 50 µM | NCI-H460 > 50 µM | HT-29 > 50 µM | A498 > 50 µM | ACHN > 50 µM | HOP-92 40.4 µM | SR > 50 µM | MOLT-4 > 50 µM | NCI-H23 > 50 µM | MCF7 > 50 µM | M14 > 50 µM | SF-539 > 50 µM | SNB-75 > 50 µM | NCI-H226 > 50 µM | UACC-257 > 50 µM | MDA-MB-435 > 50 µM | K562 > 50 µM | TK-10 > 50 µM | KM12 > 50 µM | A549 > 50 µM | OVCAR-5 > 50 µM | 786-0 > 50 µM | HCT-116 > 50 µM

CS(=O)(=O)OCCN(CCOS(C)(=O)=O)c1ccc(/C=N/c2cccc(Cl)c2)cc1
1.02 µM: HCT-15
inactive: SW-620 12.8 µM | SK-MEL-5 6.43 µM | SNB-19 5.46 µM | OVCAR-4 13.5 µM | UO-31 1.6 µM | DU-145 1.27 µM | RXF 393 2.78 µM | RPMI-8226 3.85 µM | SK-MEL-28 10.4 µM | SF-295 1.46 µM | BT-549 9.98 µM | Malme-3M 12.4 µM | U-251 3.72 µM | OVCAR-3 12.1 µM | HOP-62 7.23 µM | UACC-62 1.5 µM | LOX IMVI 1.13 µM | EKVX 7.36 µM | Hs-578T 26 µM | NCI/ADR-RES 3.61 µM | MDA-MB-231 11.5 µM | SK-MEL-2 23.8 µM | IGROV-1 15.5 µM | PC-3 24.5 µM | CCRF-CEM 1.82 µM | OVCAR-8 10 µM | SF-268 7.55 µM | HL-60 2.45 µM | SN12C 1.4 µM | HT-29 2.69 µM | A498 5.38 µM | HOP-92 23.8 µM | NCI-H23 1.66 µM | MCF7 10 µM | M14 14.5 µM | SF-539 3.68 µM | T47D 18.2 µM | SNB-75 2.11 µM | NCI-H226 2.06 µM | UACC-257 2.84 µM | MDA-MB-435 12.2 µM | K562 23.5 µM | TK-10 2.19 µM | KM12 13.4 µM | HCC 2998 2.7 µM | A549 2.64 µM | OVCAR-5 2.95 µM | HCT-116 64.9 µM
active: COLO 205 0.811 µM | CAKI-1 0.239 µM | SK-OV-3 0.561 µM | NCI-H522 0.724 µM | NCI-H460 0.269 µM | ACHN 0.181 µM | SR 0.0537 µM | MOLT-4 0.286 µM | 786-0 0.813 µM
